Experimental data published in PMC10917340, “Coxsackievirus infection induces direct pancreatic β cell killing but poor antiviral CD8^+ T cell responses” (Science Advances, 2024).
Like-named read-outs stand apart in the source and are kept apart here.

Columns and labels:
HLA-A2 = target: T1, HLA-A2 (Homo sapiens, UniProt P04439, D140Y/D185E/D98H/E176V/E277Q/G131W/G231S/I119V/I121R/I166T/I218V/N151K/N90K/P208A/P217A/Q86G/Q94H/R138H/R169H); assay: In vitro HLA-I binding assay (bead-captured folded monomers)
T1 construct: purchased ImmunAware

circulating CD8+ T cells [1] = assay: Combinatorial HLA-A2 multimer (MMr) assay, screening round; assay type: cell-based, human; conditions: for Screening round % effector/memory median (range): HLA-A2, effector/memory (non CD45RA+CCR7+) fraction among MMr+CD8+ T cells; for Screening round Frequency median: HLA-A2 MMr+CD8+ T cells out of total CD8+ T cells, frozen/thawed PBMCs, CVB-seropositive healthy adults, median of donors
circulating CD8+ T cells [2] = assay: Combinatorial HLA-A2 multimer (MMr) assay, validation round; assay type: cell-based, human; conditions: HLA-A2 MMr+CD8+ out of total CD8+ T cells; donors/peptides with <3 MMr+ cells noted as 1.0E-7
[3] = in silico predicted HLA-A2-binding peptides, fig. S2D

Sequence | In vitro binding to HLA-A2 (in words) (HLA-A2) | Screening round % effector/memory median (range) (circulating CD8+ T cells [1]) | Screening round Frequency median (circulating CD8+ T cells [1]) | In vitro binding to HLA-A2 (in words) (HLA-A2; [3]) | further results
GIIYIIYKL [previously reported CVB peptide, IEDB #20311] | did not confirm as binders |  |  |  | 
IMIKSMPAL [CVB1-2-5 60-68, HLA-A2, in silico] |  | 26 (0-70) % | 2.2 E-5 |  | Validation round Frequency median (circulating CD8+ T cells [2]): 1.0 E-7
KLPDALSQM |  |  |  | did not confirm as binders | 
VIASYPWPI | did not confirm as binders |  |  |  | 
VMGDALGSV [ZnT8245-253 peptide homologous to CVB1 150-158] |  |  |  | did not confirm as binders | 
VMIKSLPAL [CVB4-6 60-68, HLA-A2, in silico] |  | 20 (20-20) % | 5.3 E-6 |  | 
